Measured values: ChEMBL document CHEMBL1909294, “Translating clinical findings into knowledge in drug safety evaluation--drug induced liver injury prediction system (DILIps)” (PLoS Comput Biol, 2011)

Columns and labels:
Hepatotoxicity [1] = system: Hepatotoxicity;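 on HepSE bilirubinemia: bilirubinemia hepatic side effect score drawn from the DILIps training data, a prediction system for drug-induced liver injury; call rule not given here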;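 on HepSE cholecystitis: Cholecystitis-related hepatic side effect score drawn from the DILIps (drug-induced liver injury prediction) training data set; call rule not given here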;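 on HepSE cholelithiasis: hepatic side effect score for cholelithiasis, drawn from the DILIps training data for predicting drug-induced liver injury; call rule not given here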;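 on HepSE elevated liver function tests: hepatic side effect score for raised liver function tests, as recorded in the DILIps training set used for predicting drug-induced liver injury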;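 on HepSE hepatomegaly: hepatic side effect score for hepatomegaly, taken from the training set of the DILIps drug-induced liver injury prediction system; call rule not given here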;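 on HepSE jaundice: Jaundice-related hepatic side-effect score drawn from the training data of the DILIps (drug-induced liver injury prediction system); call rule not given here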; on HepSE liver disease: call rule not given here
Hepatotoxicity [2] = system: Hepatotoxicity; remark: listed apart in the source;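 on HepSE bilirubinemia: bilirubinemia hepatic side effect score drawn from the DILIps training data, a prediction system for drug-induced liver injury; call rule not given here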;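 on HepSE cholecystitis: Cholecystitis-related hepatic side effect score drawn from the DILIps (drug-induced liver injury prediction) training data set; call rule not given here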;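 on HepSE cholelithiasis: hepatic side effect score for cholelithiasis, drawn from the DILIps training data for predicting drug-induced liver injury; call rule not given here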;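 on HepSE elevated liver function tests: hepatic side effect score for raised liver function tests, as recorded in the DILIps training set used for predicting drug-induced liver injury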;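 on HepSE hepatomegaly: hepatic side effect score for hepatomegaly, taken from the training set of the DILIps drug-induced liver injury prediction system; call rule not given here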; on HepSE liver disease: call rule not given here
Hepatotoxicity [3] = system: Hepatotoxicity; remark: listed apart in the source;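 on HepSE bilirubinemia: bilirubinemia hepatic side effect score drawn from the DILIps training data, a prediction system for drug-induced liver injury; call rule not given here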;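 on HepSE cholecystitis: Cholecystitis-related hepatic side effect score drawn from the DILIps (drug-induced liver injury prediction) training data set; call rule not given here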;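 on HepSE cholelithiasis: hepatic side effect score for cholelithiasis, drawn from the DILIps training data for predicting drug-induced liver injury; call rule not given here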;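 on HepSE elevated liver function tests: hepatic side effect score for raised liver function tests, as recorded in the DILIps training set used for predicting drug-induced liver injury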;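 on HepSE hepatomegaly: hepatic side effect score for hepatomegaly, taken from the training set of the DILIps drug-induced liver injury prediction system; call rule not given here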; on HepSE liver disease: call rule not given here
Hepatotoxicity [4] = system: Hepatotoxicity; remark: listed apart in the source;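 on HepSE bilirubinemia: bilirubinemia hepatic side effect score drawn from the DILIps training data, a prediction system for drug-induced liver injury; call rule not given here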;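 on HepSE cholecystitis: Cholecystitis-related hepatic side effect score drawn from the DILIps (drug-induced liver injury prediction) training data set; call rule not given here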;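 on HepSE cholelithiasis: hepatic side effect score for cholelithiasis, drawn from the DILIps training data for predicting drug-induced liver injury; call rule not given here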;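 on HepSE elevated liver function tests: hepatic side effect score for raised liver function tests, as recorded in the DILIps training set used for predicting drug-induced liver injury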;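 on HepSE hepatomegaly: hepatic side effect score for hepatomegaly, taken from the training set of the DILIps drug-induced liver injury prediction system; call rule not given here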; on HepSE liver disease: call rule not given here
Hepatotoxicity [5] = system: Hepatotoxicity; remark: listed apart in the source; on HepSE liver disease: call rule not given here
Hepatotoxicity [6] = system: Hepatotoxicity; remark: listed apart in the source; on HepSE liver disease: call rule not given here
Hepatotoxicity [7] = system: Hepatotoxicity; remark: listed apart in the source
Hepatotoxicity [8] = system: Hepatotoxicity; remark: listed apart in the source
Hepatotoxicity [9] = system: Hepatotoxicity; remark: listed apart in the source
Hepatotoxicity [10] = system: Hepatotoxicity; remark: listed apart in the source
Hepatotoxicity [11] = system: Hepatotoxicity; remark: listed apart in the source
Hepatotoxicity [12] = system: Hepatotoxicity; remark: listed apart in the source
Hepatotoxicity [13] = system: Hepatotoxicity; remark: listed apart in the source
Hepatotoxicity [14] = system: Hepatotoxicity; remark: listed apart in the source

Row | Structure (SMILES) | HepSE_cholecystitis (Hepatotoxicity [1]) | HepSE_liver disease (Hepatotoxicity [2]) | HepSE_hepatomegaly (Hepatotoxicity [3]) | HepSE_cholelithiasis (Hepatotoxicity [4]) | HepSE_bilirubinemia (Hepatotoxicity [5]) | HepSE_elevated liver function tests (Hepatotoxicity [6]) | HepSE_liver fatty (Hepatotoxicity [7]) | HepSE_hepatic necrosis (Hepatotoxicity [8]) | HepSE_jaundice (Hepatotoxicity [9]) | HepSE_liver function tests abnormal (Hepatotoxicity [10]) | HepSE_hepatic failure (Hepatotoxicity [11]) | HepSE_hepatitis (Hepatotoxicity [12]) | HepSE_Combined Scores (Hepatotoxicity [13]) | HepSE_cirrhosis (Hepatotoxicity [14]) | other results
1 | O=C1CCc2ccc(OCCCCN3CCN(c4cccc(Cl)c4Cl)CC3)cc2N1 [ARIPIPRAZOLE] | 1 | 0 | 1 | 1 | 1 | 0 | 0 | 0 | 1 | 0 | 0 | 1 | 6 | 0 | 
2 | CC(C)(C)NCC(O)c1ccc(O)c(CO)c1 (configuration not stated) [ALBUTEROL] |  |  |  |  |  |  |  |  |  |  |  |  |  |  | HepSE_cholecystitis (Hepatotoxicity [1]; Liver): 0; HepSE_liver disease (Hepatotoxicity [2]; Liver): 0; HepSE_hepatomegaly (Hepatotoxicity [3]; Liver): 0; HepSE_cholelithiasis (Hepatotoxicity [4]; Liver): 0; HepSE_bilirubinemia (Hepatotoxicity [5]; Liver): 0; HepSE_elevated liver function tests (Hepatotoxicity [6]; Liver): 0; HepSE_liver fatty (Hepatotoxicity [7]; Liver): 0; HepSE_hepatic necrosis (Hepatotoxicity [8]; Liver): 0; HepSE_jaundice (Hepatotoxicity [9]; Liver): 0; HepSE_liver function tests abnormal (Hepatotoxicity [10]; Liver): 0; HepSE_hepatic failure (Hepatotoxicity [11]; Liver): 0; HepSE_hepatitis (Hepatotoxicity [12]; Liver): 0; HepSE_Combined Scores (Hepatotoxicity [13]; Liver): 0; HepSE_cirrhosis (Hepatotoxicity [14]; Liver): 0
3 | C[C@H](Cn1cnc2c(N)ncnc21)OCP(=O)(O)O [TENOFOVIR ANHYDROUS] | 0 | 0 | 0 | 0 | 0 | 0 | 1 | 0 | 0 | 0 | 0 | 1 | 2 | 0 | 
4 | CN1C[C@H](C(=O)N[C@]2(C)O[C@@]3(O)[C@@H]4CCCN4C(=O)[C@H](Cc4ccccc4)N3C2=O)C[C@@H]2c3cccc4[nH]cc(c34)C[C@H]21 [DIHYDROERGOTAMINE] | 0 | 0 | 0 | 0 | 0 | 0 | 0 | 0 | 0 | 0 | 0 | 0 | 0 | 0 | 
5 | CCN(CCO)CCCC(C)Nc1ccnc2cc(Cl)ccc12 (configuration not stated) [HYDROXYCHLOROQUINE] | 0 | 0 | 0 | 0 | 0 | 0 | 0 | 0 | 0 | 0 | 1 | 0 | 1 | 0 | 
6 | COc1ccc2c(c1)c(CC(=O)O)c(C)n2C(=O)c1ccc(Cl)cc1 [INDOMETHACIN] | 0 | 0 | 0 | 0 | 0 | 0 | 0 | 0 | 1 | 0 | 0 | 0 | 1 | 0 | 
7 | CC(=O)N(CC(O)CN(C(C)=O)c1c(I)c(C(=O)NCC(O)CO)c(I)c(C(=O)NCC(O)CO)c1I)c1c(I)c(C(=O)NCC(O)CO)c(I)c(C(=O)NCC(O)CO)c1I (configuration not stated) [IODIXANOL] | 0 | 0 | 0 | 0 | 0 | 0 | 0 | 0 | 0 | 0 | 0 | 0 | 0 | 0 | 
8 | CC(C)n1c(/C=C/C(O)CC(O)CC(=O)O)c(-c2ccc(F)cc2)c2ccccc21 (configuration not stated) [FLUVASTATIN] |  |  |  |  |  |  |  |  |  |  |  |  |  |  | HepSE_cholecystitis (Hepatotoxicity [1]; Liver): 0; HepSE_liver disease (Hepatotoxicity [2]; Liver): 0; HepSE_hepatomegaly (Hepatotoxicity [3]; Liver): 0; HepSE_cholelithiasis (Hepatotoxicity [4]; Liver): 0; HepSE_bilirubinemia (Hepatotoxicity [5]; Liver): 0; HepSE_elevated liver function tests (Hepatotoxicity [6]; Liver): 0; HepSE_liver fatty (Hepatotoxicity [7]; Liver): 0; HepSE_hepatic necrosis (Hepatotoxicity [8]; Liver): 1; HepSE_jaundice (Hepatotoxicity [9]; Liver): 1; HepSE_liver function tests abnormal (Hepatotoxicity [10]; Liver): 0; HepSE_hepatic failure (Hepatotoxicity [11]; Liver): 0; HepSE_hepatitis (Hepatotoxicity [12]; Liver): 1; HepSE_Combined Scores (Hepatotoxicity [13]; Liver): 4; HepSE_cirrhosis (Hepatotoxicity [14]; Liver): 1
9 | CC1(C)S[C@@H]2[C@H](NC(=O)Cc3ccccc3)C(=O)N2[C@H]1C(=O)O [PENICILLIN G] | 0 | 0 | 0 | 0 | 0 | 0 | 0 | 0 | 0 | 0 | 0 | 0 | 0 | 0 | 
10 | CC[C@@H](C(N)=O)N1CCCC1=O | 0 | 0 | 0 | 0 | 0 | 0 | 0 | 0 | 0 | 0 | 1 | 1 | 2 | 0 | 
11 | CCC(=O)[C@@]1(C)[C@H](C)C[C@H]2[C@@H]3CCC4=CC(=O)C=C[C@]4(C)[C@H]3[C@@H](O)C[C@@]21C [RIMEXOLONE] | 0 | 0 | 0 | 0 | 0 | 0 | 0 | 0 | 0 | 0 | 0 | 0 | 0 | 0 | 
12 | C[n+]1ccccc1/C=N/O [PRALIDOXIME] | 0 | 0 | 0 | 0 | 0 | 0 | 0 | 0 | 0 | 0 | 0 | 0 | 0 | 0 | 
13 | CCn1nc(C(=O)O)c(=O)c2cc3c(cc21)OCO3 [CINOXACIN] | 0 | 0 | 0 | 0 | 0 | 0 | 0 | 0 | 0 | 0 | 0 | 0 | 0 | 0 | 
